Reference: patent US9261498B2, “Biomarker for sensitivity to mTOR inhibitor therapy in kidney cancer” (The Regents of the University of California, priority 2005, dated 2016)

Key:
[1] = tested on: VHL knockdown xenograft tumors; test: Microvessel density by CD-31 immunolabeling in xenograft tumors; format: in vivo, SCID mice
Protocol: FIGS. 2A-2C. Effects of VHL knockdown on angiogenesis. (a) Microvessel density was quantified by CD-31 immunolabeling (arrows) in the xenograft tumors, and difference between CCI-779 treated (+) and vehicle (−) treated mice quantified (n=6 in each group). P<0.0033 for microvessel density counts in VHL shRNA compared to vector only (see blue bars). (b) Similar number of cells were plated and maintained in 10% serum rich media, in the presence (+) or absence (−) of 10 nM CCI-779. Thirty-six hours later, conditioned media was analyzed by anti-VEGF ELISA and cell extracts prepared for protein quantification. VEGF values were normalized to total cellular protein. Error bars equal one standard deviation (n=3). (c) Immunohistochemistry for VEGF protein was performed on paraffin embedded tumor xenografts from vehicle and CCI-779 treated mice.
Xenograft tumor samples were fixed in 10% buffered formalin and embedded in paraffin. […] Microvessel density was quantified by as described previously (Weidner, N. et al. J Natl Cancer Inst 84, 1875-87 (1992)). Briefly, microvessel density was determined by light microscopy in areas of the xenograft tumor containing highest numbers of capillaries and small venules (microvessels) per area (i.e. neovascular “hotspots”) by scanning the tumor sections at low power (40× and 100×). […]

[2] = tested on: VEGF; test: VEGF ELISA of conditioned media; format: cell-based, human; conditions: VHL knockdown cells, 10 nM CCI-779, 36 hours, normalized to total cellular protein
Protocol: FIGS. 2A-2C. Effects of VHL knockdown on angiogenesis. (a) Microvessel density was quantified by CD-31 immunolabeling (arrows) in the xenograft tumors, and difference between CCI-779 treated (+) and vehicle (−) treated mice quantified (n=6 in each group). P<0.0033 for microvessel density counts in VHL shRNA compared to vector only (see blue bars). (b) Similar number of cells were plated and maintained in 10% serum rich media, in the presence (+) or absence (−) of 10 nM CCI-779. Thirty-six hours later, conditioned media was analyzed by anti-VEGF ELISA and cell extracts prepared for protein quantification. VEGF values were normalized to total cellular protein. Error bars equal one standard deviation (n=3). […] Bound antibody was detected using enhanced chemiluminescence (ECL, Amersham). For VEGF ELISA quantification, cells were plated in 6 well plates (1×10^5 per well). […] Thirty-six hours later, VEGF ELISA (R&D Systems) was performed according to the manufacturer's instructions, using a Fisher Plate reader. […] Bound antibody was detected using enhanced chemiluminescence (ECL, Amersham). For VEGF ELISA quantification, cells were plated in 6 well plates (1×10^5 per well). […] Thirty-six hours later, VEGF ELISA (R&D Systems) was performed according to the manufacturer's instructions, using a Fisher Plate reader. […]

## CO[C@H]1C[C@@H]2CC[C@@H](C)[C@@](O)(O2)C(=O)C(=O)N2CCCC[C@H]2C(=O)O[C@H]([C@H](C)C[C@@H]2CC[C@@H](OC(=O)C(C)(CO)CO)[C@H](OC)C2)CC(=O)[C@H](C)/C=C(\C)[C@@H](O)[C@@H](OC)C(=O)[C@H](C)C[C@H](C)/C=C/C=C/C=C/1C [CCI-779]
[1]; CCI-779 treated vs vehicle
  angiogenesis as measured by microvessel density: objective decrease in angiogenesis
[1]; CD-31 staining, CCI-779 0.1 mg/kg vs vehicle
  decrease in microvessel density: greater than 50%
[2]
  reduction of secreted VEGF levels: 2 fold
